# Test results from patent US9150982B2, “Crystal form of (6S)-5-methyltetrahydrofolate salt and method for preparing same” (LIANYUNGANG JINKANG HEXIN PHARMACEUTICAL CO. LTD., priority 2012, dated 2015).
# Where two headings read alike, the source gives them in different places.
# Details: in the air, 40° C., relative humidity 60%
# Protocol: In order to determine the stability of the novel crystal form of the Form C of (6S)-5-MTHF calcium salt, the crystal form was placed in the air at a temperature of 40° C. and a relative humidity of 60%, and the content of remained (6S)-5-MTHF calcium salt was periodically measured.
substance,measurement,setting,value
(6S)-5-methyltetrahydrofolate calcium salt [Form C],Stability (overall result in words),up to 9 days,good stability
same,Appearance,storage 0 days,White crystal
same,Content of remained (6S)-5-MTHF calcium salt,storage 0 days,99.5%
same,Appearance,storage 3 days,White crystal
same,Content of remained (6S)-5-MTHF calcium salt,storage 3 days,99.1%
same,Appearance,storage 6 days,White crystal
same,Content of remained (6S)-5-MTHF calcium salt,storage 6 days,99.1%
same,Appearance,storage 9 days,White crystal
same,Content of remained (6S)-5-MTHF calcium salt,storage 9 days,98.4%
